From patent publication US20150056209A1, “PEPTIDE MIMOTOPES TO OXIDATION SPECIFIC EPITOPES” (The Regents of the University of California, priority 2012, published 2015)
Where no end group is shown, it is not given here.

How the values were obtained:
isotype control IgM = assay: Phage ELISA, binding of phage clones to isotype control IgM; settings: 10^10 pfu/ml, OD 405-490 nm
Description: Briefly, LRO4 or a control isotype anti-KLH IgM Ab (C48-6; BD Bioscience-Pharmingen, USA) were coated in buffer containing 0.1 M NaHCO3 (pH 8.5) on ELISA plates (Nunc Maxisorp, Roskilde, Denmark) overnight (ON) at 4° C. at a concentration of 100 μg/ml for the 1st, 50 μg/ml for the 2nd, and 10 μg/ml for the 3rd biopanning round. The next day, wells were washed with TBS containing 0.05% v/v Tween 20 (TBS-T) and incubated with blocking buffer containing 0.1M NaHCO3 (pH 8.6) and 5 mg/mL bovine serum albumin (BSA) for 1 hour at room temperature (RT). After further washing with TBS-T, 10 μL of a library solution (containing 2×10^12 phages) diluted in 100 μl of blocking buffer were first added to wells coated with control IgM (negative selection) and then unbound phages were transferred to wells coated with LRO4 (positive selection) and incubated at RT. The incubation time for negative or positive selection was reduced from 60 min for the 1st round to 30 min for the 2nd as well as 3rd biopanning round. Thereafter, plates were washed 5 times with TBS-T to remove unbound phages. To further elute nonspecifically bound phages, wells were incubated with 100 μL of 100 μg/ml of native LDL for 1 hour at RT. After washing up to 5 times with TBS-T, bound phages were eluted with 100 μL of elution buffer containing 0.2 M glycine-HCl (pH 2.2) and 1 mg/mL BSA. Eluates were transferred to microfuge tubes and neutralized with 15 μL of 1 M Tris-HCL (pH 9.1). The eluted phages were then titrated and amplified for the next round of panning. The 2nd and 3rd biopanning round was carried out using amplified eluates from the first and second round as input phages, respectively. To remove nonspecifically bound phages and to increase the affinity in the subsequent biopanning rounds, wells were washed 15 and 30 times with 0.1% TBS-T in the 2nd and 0.5% TBS-T in the 3rd rounds of biopanning, respectively. In the last biopanning round, LRO4-bound phages were competitively eluted with increasing concentrations (3-150 μg/mL) of MDA-LDL diluted in blocking buffer followed by elution using elution buffer.
(§1) Phage ELISA was performed as described by NEB with minor modifications. Ninety six-well ELISA plates (Nunc Maxisorp) were coated with 5 μg/mL LRO4 mAb or control IgM mAb in NaHCO3 buffer (pH 8.6) at 50 μL/well ON at 4° C. Wells were washed with TBS containing 0.5% Tween 20 and then blocked with blocking buffer (TBS-T containing 1% BSA) at 200 μL/well for 1 hour at RT. After further washing, 10^10 pfu/ml of phage amplificates diluted in blocking buffer were added to the wells at 50 μL/well for 2 hours at RT. Wells were washed again, and an HRP-labeled anti-M13 mAb conjugate (no. 27-9421-01; GE Healthcare, Amersham, UK) diluted 1:1,000 in blocking buffer was added for 1 hour at RT followed by the addition of an 2,2′-azino-bis(3-ethylbenzothiazoline-6-sulphonic acid) (ABTS) (Sigma-Aldrich) substrate solution for 1 hour at RT. The binding reactivity of selected phage clones was measured at OD 405-490 nm using a BioTek Synergy 2 plate reader.

LRO4 [1] = assay: Phage ELISA, binding of phage clones to coated LRO4; parameters: species or system murine; settings: 10^10 pfu/ml, OD 405-490 nm
Description: as §1

LRO4 [2] = assay: Competitive phage ELISA, phage binding to LRO4 in presence of MDA-LDL; parameters: species or system murine; settings: in the presence of 50 μg/mL MDA-LDL
Description: For competitive phage ELISA, plates were coated with 5 μg/mL LRO4 and binding of 25 μL of phage solution at 2×10^10 pfu/mL was tested in the presence of 25 μL of MDA-LDL at 100 μg/mL. Bound phages were detected as described above and data expressed as values obtained in presence of competitor (B) divided by the values obtained in the absence of competitor (B0). A reciprocal competition assay was performed in which 50 μL of 5 μg/mL MDA-LDL was coated on microtiter wells, and binding of LRO4 that was preincubated for 30 min at RT with a solution containing either no or 1×10^10 pfu/mL phages with or without peptide was tested by chemiluminescent ELISA.
Table 2A-B. Binding characteristics of MDA-phagotopes. Sequences and binding characteristics of selected phagotopes from (A) the Ph.D.-12 and (B) the Ph.D.7C7 libraries, respectively. Individual phages were selected and amplified after the third round of biopanning, and binding to an isotype control IgM, LRO4, and LRO4 in the presence of 50 μg/mL MDA-LDL was measured by phage ELISA, as described in Methods. Numbers indicate OD values or for inhibition studies the fraction of OD values obtained in the absence and presence of soluble MDA-LDL (B/B0). Sequences indicate amino acid residues in peptide sequences that were deducted from the DNA sequence of each phagotope. “X” indicates an unidentified amino acid at this position. * for clones with identical sequence representative data of one clone are provided. (SEQ ID NOs:6-37)

LRO4 [3] = assay: Chemiluminescent ELISA, binding of LRO4 to plated or captured peptides; parameters: species or system murine; settings: peptides directly plated at increasing concentrations; LRO4 5 μg/mL
Description: Binding of mAb as well as plasma Abs to respective antigens was measured by chemiluminescent ELISA. Antigens were coated at 5 μg/mL in PBS/EDTA (pH 7.4). Synthetic peptides were directly coated at 10 μg/mL (P1) or 5 μg/mL (P2) in 0.1M NaHCO3 buffer (pH 8.6), unless indicated differently. Biotinylated peptides were immobilized at indicated concentrations in 0.1M NaHCO3 buffer (pH 8.6) on wells pre-coated with 10 μg/mL neutravidin (Pierce, Rockford, Ill., USA). Ab binding was measured using alkaline phosphatase (AP) labeled secondary Abs (described below) followed by chemiluminescent detection. For the detection of human autoAbs, a 1:400 plasma dilution was used. For human assays, internal controls consisting of high and low standard plasma samples were included on each microtiter plate to detect potential variations between microtiter plates. The intra-assay coefficients of variation for all assays were 10 to 14%.
The following secondary Abs were used: Alkaline Phosphatase (AP)-labeled goat anti-mouse IgM (μ-chain specific), IgG (γ-chain specific), IgG1 (Sigma-Aldrich) and IgG2c (Southern Biotech). For the detection of human autoAbs AP-labeled goat anti human IgG (γ-chain specific) and IgM (μ-chain specific) (Sigma-Aldrich) were used. Biotin-conjugated Abs were detected with AP-conjugated neutravidin (1:10,000; Pierce).

LRO4 [4] = assay: Competition immunoassays for LRO4 binding; parameters: species or system murine; settings: 0.5 μg/mL LRO4; 100 ng/mL captured P2; increasing concentrations of soluble competitor
Description: The specific binding of LRO4 to mimotopes was determined by competition immunoassays. Fifty μl of 0.5 μg/mL MAA-BSA or 100 ng/mL of biotinylated peptides were plated as described above. LRO4 antibody was incubated in TBS-1% BSA with or without increasing concentrations of competitors (BSA, MAA-BSA, P1, P2 and control peptide) for 30 minutes at RT. Binding of LRO4 was determined by chemiluminescent ELISA. The specificity of human plasma Ab binding to P1 was determined in a similar manner. In preliminary experiments, aliquots of pooled plasma samples (n=26) from a published cohort of healthy subjects were diluted in 1% BSA-TBS to yield a limiting plasma dilution. Diluted plasma (1:1,000) and increasing concentrations of competitors were incubated overnight at 4° C. Samples were then centrifuged at 15,800 g for 45 minutes at 4° C. to pellet immune complexes, and supernatants were analyzed for binding to plated P1 (10 μg/mL) by chemiluminescent ELISA.

[5] = Table 2A, Ph.D.-12 library clones
[6] = Table 2B, Ph.D.7C7 library clones

Substance | Binding of phages to control IgM (isotype control IgM; [5]) [OD] | Binding of phages to LR04 (LRO4 [1]; [5]) [OD] | Inhibition of binding to LR04 (B/Bo) (LRO4 [2]; [5]) | Binding of phages to control IgM (isotype control IgM; [6]) [OD] | Binding of phages to LR04 (LRO4 [1]; [6]) [OD] | Inhibition of binding to LR04 (B/Bo) (LRO4 [2]; [6]) | binding of LRO4 to plated peptides (LRO4 [3]) | competition for LRO4 binding to captured biotinylated P2 (LRO4 [4])
ASISNLTLSRFM [M15] | 0.04 | 1.34 | 0.15 | – | – | – | – | –
DWAPHFT [Cb2] | – | – | – | 0.2 | 1.0 | 0.03 | – | –
NNWNMPL [Ca1, Ca7] | – | – | – | 0.1 | 0.8 | 0.04 | – | –
QNMNNWTLASIM [A31] | 0.08 | 0.85 | 0.25 | – | – | – | – | –
HSLSNIQMATLA [M10, G8] | 0.03 | 1.16 | 0.10 | – | – | – | – | –
NNRNMPL [Ca59, Cb1] | – | – | – | 0.1 | 0.8 | 0.06 | – | –
NNSKMRL [Ca2] | – | – | – | 0.2 | 0.8 | 0.12 | – | –
HRLTNSEQAALP [M3, M5] | 0.03 | 1.56 | 0.10 | – | – | – | – | –
HRMTNAMHHFMG [A38] | 0.21 | 0.64 | 0.10 | – | – | – | – | –
ACSPNLNMNC (ACSPNLNMNCGGGS-NH2; cysteine pairing not given here) [scrambled peptide of P2, reference compound] | – | – | – | – | – | – | not recognized by LRO4 | had no effect
HSWSNYWGHQHA [A32] | 0.02 | 0.98 | 0.18 | – | – | – | – | –
TAVTNSMMERLW [M8] | 0.04 | 1.57 | 0.20 | – | – | – | – | –
ADPFSPTNRIPL [M7] | 0.03 | 1.37 | 0.10 | – | – | – | – | –
EVMNNWTLASIM [M30] | 0.03 | 1.04 | 0.06 | – | – | – | – | –
NSWTNASLSTFH [A40] | 0.04 | 0.89 | 0.10 | – | – | – | – | –
HSLTNTQMTQLS [M31] | 0.03 | 1.35 | 0.40 | – | – | – | – | –

Substance | Binding of phages to control IgM (isotype control IgM; [5]) [OD] | Binding of phages to LR04 (LRO4 [1]; [5]) [OD] | Inhibition of binding to LR04 (B/Bo) (LRO4 [2]; [5]) | Binding of phages to control IgM (isotype control IgM; [6]) [OD] | Binding of phages to LR04 (LRO4 [1]; [6]) [OD] | Inhibition of binding to LR04 (B/Bo) (LRO4 [2]; [6]) | binding of LRO4 to plated peptides (LRO4 [3]) | competition for LRO4 binding to captured biotinylated P2 (LRO4 [4])
ESWTNSWAHYFG [A36, B41, M35] | 0.03 | 1.16 | 0.14 | – | – | – | – | –
NNWKMPL [Cb4] | – | – | – | 0.1 | 0.6 | 0.02 | – | –
NNSXMPL [Ca6] | – | – | – | 0.0 | 0.7 | 0.04 | – | –
NNQNMPL [Cb9] | – | – | – | 0.01 | 0.7 | 0.02 | – | –
HQLSNKDEQTPQ [A33] | 0.05 | 0.63 | 0.14 | – | – | – | – | –
NNSNMPL [Cb10] | – | – | – | 0.2 | 0.6 | 0.02 | – | –
NNYNMPL [Cb589] | – | – | – | 0.1 | 0.8 | 0.03 | – | –
GWGNKTPSQDVH [A39] | 0.05 | 1.19 | 0.19 | – | – | – | – | –
QNSHMPL [Ca3] | – | – | – | 0.1 | 0.5 | 0.04 | – | –
NSRTNNSQWTFQ [A34] | 0.11 | 0.82 | 0.11 | – | – | – | – | –
ESWNTNSWAMYFG [M2] | 0.03 | 1.17 | 0.20 | – | – | – | – | –
QSYTNDDVLRIS [M19] | 0.03 | 1.67 | 0.25 | – | – | – | – | –
NNSHMPL [Ca9, Cb3, Ca8, Ca10] | – | – | – | 0.2 | 0.9 | 0.04 | – | –
HRISNYAMELHS [G4] | 0.04 | 1.45 | 0.10 | – | – | – | – | –
HRMTNNAMDVFM [M6, G10] | 0.03 | 1.56 | 0.20 | – | – | – | – | –
KNSXQPL [Ca4] | – | – | – | 0.1 | 0.9 | 0.13 | – | –
